The source of these data is patent publication US20200016159A1, “N3-CYCLICALLY SUBSTITUTED THIENOURACILS AND USE THEREOF” (Bayer Aktiengesellschaft, priority 2016, published 2020).

Each structure is given as a SMILES string.

The target of the test is T1, human adenosine A2b receptor (Homo sapiens, UniProt P29275).
T1 sequence (P29275 1-332): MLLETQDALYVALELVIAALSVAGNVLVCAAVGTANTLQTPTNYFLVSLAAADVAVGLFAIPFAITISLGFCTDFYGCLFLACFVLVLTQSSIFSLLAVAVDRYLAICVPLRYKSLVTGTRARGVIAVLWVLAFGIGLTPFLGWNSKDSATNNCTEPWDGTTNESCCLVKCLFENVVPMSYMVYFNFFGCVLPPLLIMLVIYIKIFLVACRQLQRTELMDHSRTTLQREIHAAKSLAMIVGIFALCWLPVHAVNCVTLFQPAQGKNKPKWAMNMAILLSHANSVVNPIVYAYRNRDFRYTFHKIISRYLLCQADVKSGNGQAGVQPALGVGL
The test can be described thus: Cellular in vitro reporter gene test for A2b receptor activity (antagonism of NECA). The settings on record: recombinant CHO-K1 cells, CRE-luciferase reporter, co-incubation with EC50 concentration of NECA, 3 hours. The arrangement: expressed in transfected cells; host or cells: CHO-K1 (Chinese hamster ovary) with CRE-luciferase reporter. The class given is cell-based. In short, it runs like this: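 Antagonism measured as block of NECA-induced, cAMP/CRE-dependent luciferase expression in recombinant A2b CHO-K1 cells. NECA used at the EC50 set in a pre-experiment on each test day; luminescence detected after 3 h. Reported as IC50, partly averaged and rounded to two significant figures.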

`COC(=O)N=C1NCCN1Cc1sc2c(c1C)c(=O)n(C1CC1)c(=O)n2CC1CCCO1` (single isomer, unassigned) [Example 44, Methyl [1-{[3-cyclopropyl-5-methyl-2,4-dioxo-1-(tetrahydrofuran-2-ylmethyl)-1,2,3,4-tetrahydrothieno[2,3-d]pyrimidin-6-yl]methyl}imidazolidin-2-ylidene]carbamate]: the IC50 was 0.016 µM.

With `Cc1c(CN2CCNC2=O)sc2c1c(=O)n(C1CC1C)c(=O)n2CC(F)(F)F` (racemic) [Example 237, 5-Methyl-3-(2-methylcyclopropyl)-6-[(2-oxoimidazolidin-1-yl)methyl]-1-(2,2,2-trifluoroethyl)thieno[2,3-d]pyrimidine-2,4(1H,3H)-dione], the IC50 amounted to 0.0044 µM.

For `Cc1c(Cn2nc[nH]c2=O)sc2c1c(=O)n(C1CC1)c(=O)n2CC1CC1(F)F` (single isomer, unassigned; enantiomer 1) [Example 21, 3-Cyclopropyl-1-[(2,2-difluorocyclopropyl)methyl]-5-methyl-6-[(5-oxo-4,5-dihydro-1H-1,2,4-triazol-1-yl)methyl]thieno[2,3-d]pyrimidine-2,4(1H,3H)-dione (enantiomer 1)], the half-maximal inhibitory concentration (IC50) turned out to be 0.053 µM.

In the case of `Cc1c(Cn2nc[nH]c2=O)sc2c1c(=O)n([C@H]1C[C@@H]1C)c(=O)n2CCC(F)(F)F` [Example 323, 5-Methyl-3-[(1S,2S)-2-methylcyclopropyl]-6-[(5-oxo-4,5-dihydro-1H-1,2,4-triazol-1-yl)methyl]-1-(3,3,3-trifluoropropyl)thieno[2,3-d]pyrimidine-2,4(1H,3H)-dione], the IC50 is 0.0031 µM.

`Cc1c(Cn2cc[nH]c2=O)sc2c1c(=O)n(C1CC1)c(=O)n2CC1CCCO1` (single isomer, unassigned) [Example 47, 3-Cyclopropyl-5-methyl-6-[(2-oxo-2,3-dihydro-H-imidazol-1-yl)methyl]-1-(tetrahydrofuran-2-ylmethyl)thieno[2,3-d]pyrimidine-2,4(1H,3H)-dione]: the IC50 was determined as 0.14 µM.

Turning to `Cc1c(CN2CCNC2=O)sc2c1c(=O)n(C1CC1C)c(=O)n2CC1CC(F)(F)C1` (single isomer, unassigned) [Example 254, 1-[(3,3-Difluorocyclobutyl)methyl]-5-methyl-3-(2-methylcyclopropyl)-6-[(2-oxoimidazolidin-1-yl)methyl]thieno[2,3-d]pyrimidine-2,4(1H,3H)-dione], the 50% inhibitory concentration (IC50) came out at 0.0072 µM.

As for `Cc1c(Cn2nc[nH]c2=O)sc2c1c(=O)n(C1CC(C)(C)C1)c(=O)n2CCC(F)(F)F` [Example 168, 3-(3,3-Dimethylcyclobutyl)-5-methyl-6-[(5-oxo-4,5-dihydro-1,2,4-triazol-1-yl)methy]-1-(3,3,3-trifluoropropyl)thieno[2,3-d]pyrimidine-2,4(1H,3H)-dione], the IC50 turned out to be 0.016 µM.

With `Cc1c(Cn2nc[nH]c2=O)sc2c1c(=O)n(C1CC1)c(=O)n2CC#N` [Example 23, {3-Cyclopropyl-5-methyl-2,4-dioxo-6-[(5-oxo-4,5-dihydro-1H-1,2,4-triazol-1-yl)methyl]-3,4-dihydrothieno[2,3-d]pyrimidin-1 (2H)-yl}acetonitrile], the half-maximal inhibitory concentration (IC50) is 0.13 µM.

As to `COCCn1c(=O)n([C@H]2C[C@H](OC)C2)c(=O)c2c(C)c(CN3CCNC(=O)C3=O)sc21` [Example 152, 6-[(2,3-Dioxopiperazin-1-yl)methyl]-3-(trans-3-methoxycyclobutyl)-1-(2-methoxyethyl)-5-methylthieno[2,3-d]pyrimidine-2,4(1H,3H)-dione], the IC50 stood at 0.34 µM.

Turning to `[2H]C([2H])(c1sc2c(c1C)c(=O)n(C1CC1)c(=O)n2CCOC)N1CCNC1=O` [Example 30, 3-Cyclopropyl-1-(2-methoxyethyl)-5-methyl-6-[(2-oxoimidazolidin-1-yl)dideuteromethyl]thieno[2,3-d]pyrimidine-2,4(1H,3H)-dione], the 50% inhibitory concentration (IC50) was 0.0093 µM.

Turning to `Cc1c(CN2CCNC2=O)sc2c1c(=O)n(C1CC1(C)C)c(=O)n2CCCF` (single isomer, unassigned) [Example 98, 3-(2,2-Dimethylcyclopropyl)-1-(3-fluoropropyl)-5-methyl-6-[(2-oxoimidazolidin-1-yl)methyl]thieno[2,3-d]pyrimidine-2,4(1H,3H)-dione], the IC50 was 0.14 µM.

With `COCCn1c(=O)n(C2CC2)c(=O)c2c(C)c(CN3CCNC3=O)sc21` [Example 24, 3-Cyclopropyl-1-(2-methoxyethyl)-5-methyl-6-[(2-oxoimidazolidin-1-yl)methyl]thieno[2,3-d]pyrimidine-2,4(1H,3H)-dione], the half-inhibitory concentration (IC50) worked out at 0.029 µM.

As for `Cc1c(CN2CCNC2=O)sc2c1c(=O)n([C@H]1C[C@@H]1C)c(=O)n2CC1CCO1` (single isomer, unassigned) [Example 283], the IC50 worked out at 0.025 µM.

For `COCCn1c(=O)n([C@H]2C[C@@H](OC)C2)c(=O)c2c(C)c(Cn3nc[nH]c3=O)sc21` [Example 163, 3-(cis-3-Methoxycyclobutyl)-1-(2-methoxyethyl)-5-methyl-6-[(5-oxo-4,5-dihydro-1H-1,2,4-triazol-1-yl)methyl]thieno[2,3-d]pyrimidine-2,4(1H,3H)-dione], the half-maximal inhibitory concentration (IC50) stood at 1.2 µM.

Take `CCn1c(=O)n(C2CC2C)c(=O)c2c(C)c(CN3CCNC3=O)sc21` (single isomer, unassigned) [Example 226, 1-Ethyl-5-methyl-3-(2-methylcyclopropyl)-6-[(2-oxoimidazolidin-1-yl)methyl]thieno[2,3-d]pyrimidine-2,4(1H,3H)-dione]: the IC50 is 0.0019 µM.

With `Cc1c(CN2CCNC2=O)sc2c1c(=O)n(C1CC1C)c(=O)n2CCC(F)(F)F` (single isomer, unassigned) [Example 241, 5-Methyl-3-(2-methylcyclopropyl)-6-[(2-oxoimidazolidin-1-yl)methyl]-1-(3,3,3-trifluoropropyl)thieno[2,3-d]pyrimidine-2,4(1H,3H)-dione], the IC50 was 0.0071 µM.

As for `Cc1c(CN2CCNC2=O)sc2c1c(=O)n(C1CC1)c(=O)n2CC1CC1(F)F` (racemic) [Example 19, 3-Cyclopropyl-1-[(2,2-difluorocyclopropyl)methyl]-5-methyl-6-[(2-oxoimidazolidin-1-yl)methyl]thieno[2,3-d]pyrimidine-2,4(1H,3H)-dione (racemate)], the IC50 amounted to 0.019 µM.

As for `COCCn1c(=O)n(C2(C)CCC2)c(=O)c2c(C)c(CN3CCNC3=O)sc21` [Example 139, 1-(2-Methoxyethyl)-5-methyl-3-(1-methylcyclobutyl)-6-[(2-oxoimidazolidin-1-yl)methyl]thieno[2,3-d]pyrimidine-2,4(1H,3H)-dione], the 50% inhibitory concentration (IC50) was 0.31 µM.

For `COCCn1c(=O)n(C2CCCC2)c(=O)c2c(C)c(Cn3nc[nH]c3=O)sc21` [Example 193, 3-Cyclopentyl-1-(2-methoxyethyl)-5-methyl-6-[(5-oxo-4,5-dihydro-1H-1,2,4-triazol-1-yl)methyl]thieno[2,3-d]pyrimidine-2,4(1H,3H)-dione], the half-inhibitory concentration (IC50) came out at 0.23 µM.

For the molecule `Cc1c(Cn2nc[nH]c2=O)sc2c1c(=O)n(C1CC1)c(=O)n2CC(F)F` [Example 199, 3-Cyclopropyl-1-(2,2-difluoroethyl)-5-methyl-6-[(5-oxo-4,5-dihydro-H-1,2,4-triazol-1-yl)methyl]thieno[2,3-d]pyrimidine-2,4(1H,3H)-dione], the IC50 stood at 0.13 µM.

As for `Cc1c(Cn2[nH]ccc2=O)sc2c1c(=O)n(C1CC(F)(F)C1)c(=O)n2CCC(F)(F)F` [Example 313, 3-(3,3-Difluorocyclobutyl)-5-methyl-6-[(5-oxo-2,5-dihydro-1H-pyrazol-1-yl)methyl]-1-(3,3,3-trifluoropropyl)thieno[2,3-d]pyrimidine-2,4(1H,3H)-dione], the half-maximal inhibitory concentration (IC50) was 0.093 µM.

For `Cc1c(CN2CCNC(=O)C2=O)sc2c1c(=O)n(C1(C)CCC1)c(=O)n2CCC(F)(F)F` [Example 137, 6-[(2,3-Dioxopiperazin-1-yl)methyl]-5-methyl-3-(1-methylcyclobutyl)-1-(3,3,3-trifluoropropyl)thieno[2,3-d]pyrimidine-2,4(1H,3H)-dione], the IC50 worked out at 0.077 µM.

Regarding `COCCn1c(=O)n(C2CCC2)c(=O)c2c(C)c(CN3CCNC(=O)C3=O)sc21` [Example 118, 3-Cyclobutyl-6-[(2,3-dioxopiperazin-1-yl)methyl]-1-(2-methoxyethyl)-5-methylthieno[2,3-d]pyrimidine-2,4(1H,3H)-dione], the half-maximal inhibitory concentration (IC50) is 0.014 µM.

In the case of `Cc1c(CN2CCNC2=O)sc2c1c(=O)n(C1CC1C)c(=O)n2C` (single isomer, unassigned) [Example 222, 1,5-Dimethyl-3-(2-methylcyclopropyl)-6-[(2-oxoimidazolidin-1-yl)methyl]thieno[2,3-d]pyrimidine-2,4(1H,3H)-dione], the IC50 is 0.0016 µM.

For the molecule `Cc1c(CN2CCNC2=O)sc2c1c(=O)n(C1CC1C)c(=O)n2CCF` (racemic) [Example 231, 1-(2-Fluoroethyl)-5-methyl-3-(2-methylcyclopropyl)-6-[(2-oxoimidazolidin-1-yl)methyl]thieno[2,3-d]pyrimidine-2,4(1H,3H)-dione], the half-inhibitory concentration (IC50) stood at 0.0023 µM.

As for `Cc1c(CN2CCNC2=NC#N)sc2c1c(=O)n(C1CC3(CCC3)C1)c(=O)n2CCC(F)(F)F` [Example 175, [1-{[5-Methyl-2,4-dioxo-3-(spiro[3.3]hept-2-yl)-1-(3,3,3-trifluoropropyl)-1,2,3,4-tetrahydrothieno[2,3-d]pyrimidin-6-yl]methyl}imidazolidin-2-ylidene]cyanamide], the 50% inhibitory concentration (IC50) was 0.018 µM.
